Data published in ChEMBL document CHEMBL2202983, “Structure-anti-leukemic activity relationship study of ortho-dihydroxycoumarins in U-937 cells: key role of the δ-lactone ring in determining differentiation-inducing potency and selective pro-apoptotic action” (Bioorg Med Chem, 2012).
Active and inactive are the calls of the source. The rule behind the calls is not given here.

How the values were obtained:
U-937 [1] = test: Induction of apoptosis in human U937 cells assessed as increase of caspase-9 cleavage at 250 uM after 12 hrs by Western blot analysis; type: functional, cell-based
U-937 [2] = test: Induction of apoptosis in human U937 cells assessed as active 11 kDa fragment of caspase-3 at 250 uM after 24 hrs by Western blot analysis; type: functional, cell-based
U-937 [3] = test: Induction of apoptosis in human U937 cells assessed as PARP cleavage at 250 uM after 24 hrs by Western blot analysis; type: functional, cell-based
U-937 [4] = test: Induction of apoptosis in human U937 cells assessed as activation of caspase-3 at 250 uM after 24 hrs by colorimetric assay; type: functional, cell-based
U-937 [5] = test: Induction of apoptosis in human U937 cells assessed as phosphatidylserine expression in plasma membrane at 250 uM after 24 hrs by Annexin V-FITC double staining; type: functional, cell-based
U-937 [6] = test: Inhibition of clonogenic activity in human U937 cells assessed as reduction of colony formation in soft agar at 100 to 250 uM after 24 hrs using crystal violet staining; type: functional, cell-based
U-937 [7] = test: Cell cycle arrest in human U937 cells assessed as accumulation at sub-G0/G1 phase at 250 uM after 24 hrs using propidium iodide staining by FACS analysis; type: functional, cell-based
U-937 [8] = test: Cytotoxicity against human U937 cells after 48 hrs by trypan blue assay; type: functional; settings: U-937, 48 h
U-937 [9] = test: Antiproliferative activity against human U937 cells assessed as incorporation of [3H]-methyl-thymidine after 12 hrs by scintillation counting; type: functional, cell-based
U-937 [10] = test: Induction of apoptosis in human U937 cells assessed as reduction of normal cells at 250 uM after 24 hrs by Annexin V-FITC double staining; type: functional, cell-based
U-937 [11] = test: Induction of DNA damage in human U937 cells; type: functional, cell-based
Jurkat [12] = test: Cytotoxicity against human Jurkat at 250 uM after 48 hrs by trypan blue assay; type: functional, cell-based
PBMC = test: Cytotoxicity against human PBMC at 250 uM after 48 hrs by trypan blue assay; type: cell-based
Jurkat [13] = test: Induction of apoptosis in human Jurkat cells assessed as activation of caspase-3-mediated PARP cleavage at 250 uM after 24 hrs by colorimetric assay; type: functional, cell-based
U-937 [14] = test: Pro-oxidant activity in human U937 cells assessed as DCF-DA oxidation at 10 to 250 uM by fluorescence assay; type: functional, cell-based; settings: TDE = time-dependent effect
U-937 [15] = test: Pro-oxidant activity in human U937 cells assessed as DCF-DA oxidation up to 6 hrs by fluorescence assay; type: functional, cell-based
[16] = Induction of free radicals production in carbonate buffer at pH 9 by electron spin resonance analysis; type: physicochemical
[17] = Induction of free radicals production in RPMI 1640 medium at pH 7.4 by electron spin resonance analysis; type: physicochemical
[18] = Pro-oxidant activity in 0.1 M potassium phosphate buffer at pH 7.4 assessed as increase of oxidation potential by cyclic voltammetry analysis; type: physicochemical
U-937 [19] = test: Induction of cell differentiation in human U937 cells assessed as increase of rhC5a-induced response at 50 uM after 72 hrs by FACS flow cytometer analysis; type: functional, cell-based
U-937 [20] = test: Induction of cell differentiation in human U937 cells assessed as increase of CD88 expression at 50 uM after 72 hrs by FACS flow cytometer analysis; type: functional, cell-based
U-937 [21] = test: Induction of cell differentiation in human U937 cells assessed as increase of CD11b and CD14 expression at 50 uM after 72 hrs by FACS flow cytometer analysis; type: functional, cell-based
U-937 [22] = test: Induction of apoptosis in human U937 cells assessed as activation of caspase-3 at 250 uM after 24 hrs by colorimetric assay in presence of caspase-8 inhibitor Z-LETD-FMK; type: functional, cell-based
U-937 [23] = test: Induction of apoptosis in human U937 cells assessed as increase of caspase-8 cleavage at 250 uM after 12 hrs by Western blot analysis; type: functional, cell-based
U-937 [24] = test: Induction of apoptosis in human U937 cells assessed as activation of caspase-3 at 250 uM after 24 hrs by colorimetric assay in presence of caspase-9 inhibitor Z-LEHD-FMK; type: functional, cell-based
U-937 [25] = test: Induction of apoptosis in human U937 cells assessed as increase of caspase-9 cleavage at 250 uM by Western blot analysis; type: functional, cell-based; settings: TDE = time-dependent effect

In the case of `Cc1cc(=O)oc2c(O)c(O)ccc12` [4-METHYLDAPHNETIN], the Activity (U-937 [1]) is reported as “Active”, the Activity (U-937 [2]) is reported as “Active” and the Activity (U-937 [3]) is reported as “Active”. The Activity (U-937 [4]) was “Active”, the Activity (U-937 [5]) was “Active” and the “colony formation inhibition (active/not active)” value (U-937 [6]) was “Active”. The Activity (U-937 [7]) was “Active”, the CC50 (U-937 [8]) was 120 µM and the IC50 (U-937 [9]) was 83.2 µM. For the same compound, the Activity (U-937 [10]) was “Active”, the Activity (U-937 [11]) was “inactive” and the Activity (Jurkat [12]) was “Active”. The Activity (PBMC) was “Toxic”, the Activity (Jurkat [13]) was “Active” and the Activity (U-937 [14]) was “tde”. For the same compound, the Activity (U-937 [15]) was “Dose-dependent effect”, the Activity [16] was “Active” and the Activity [17] was “Active”. The Activity [18] was “Active”, the Activity (U-937 [19]) was “Active” and the Activity (U-937 [20]) was “Active”. The Activity (U-937 [21]) was “Active”, the Activity (U-937 [22]) was “Active” and the Activity (U-937 [23]) was “inactive”. The Activity (U-937 [24]) was “inactive” and the Activity (U-937 [25]) was “tde”.
